The target in test [1] is T1, Human vitronectin receptor (αv β3) (Homo sapiens, UniProt P05106+P06756).
T1 construct: Human vitronectin receptor (αv β3) was purified from human placenta; from tissue; host or cells: human placenta
Description: Vitronectin adhesion assay (solid phase receptor assay, αvβ3). The test is classed as binding. As to conditions: inhibition of binding of biotinylated human vitronectin (1 nM) to purified receptor; Table I; read-out: AvB3 IC50. Here is the method:
(§1) The activity of the compounds of the present invention was tested in the following assays.
Human vitronectin receptor (αv β3) was purified from human placenta as previously described [Pytela et al., Methods in Enzymology, 144:475-489 (1987)]. Human vitronectin was purified from fresh frozen plasma as previously described [Yatohgo et al., Cell Structure and Function, 13:281-292 (1988)]. Biotinylated human vitronectin was prepared by coupling NHS-biotin from Pierce Chemical Company (Rockford, Ill.) to purified vitronectin as previously described [Charo et al., J. Biol. Chem., 266(3):1415-1421 (1991)]. Assay buffer, OPD substrate tablets, and RIA grade BSA were obtained from Sigma (St. Louis, Mo.). Anti-biotin antibody was obtained from Calbiochem (La Jolla, Calif.). Linbro microtiter plates were obtained from Flow Labs (McLean, Va.). ADP reagent was obtained from Sigma (St. Louis, Mo.).
(§2) Solid Phase Receptor Assays
This assay was essentially the same as previously reported [Niiya et al., Blood, 70:475-483 (1987)]. The purified human vitronectin receptor (αv β3) was diluted from stock solutions to […] in Tris-buffered saline containing 1.0 mM Ca^++, Mg^++, and Mn^++, pH 7.4 (TBS^+++). The diluted receptor was immediately transferred to Linbro microtiter plates at 100 μL/well (100 ng receptor/well). The plates were sealed and incubated overnight at 4° C. to allow the receptor to bind to the wells. All remaining steps were at room temperature. The assay plates were emptied and 200 μL, of 1% RIA grade BSA in TBS^+++ (TBS^+++ /BSA) were added to block exposed plastic surfaces. Following a 2 hour incubation, the assay plates were washed with TBS^+++ using a 96 well plate washer. Logarithmic serial dilution of the test compound and controls were made starting at a stock concentration of 2 mM and using 2 nM biotinylated vitronectin in TBS^+++ /BSA as the diluent. This premixing of labeled ligand with test (or control) ligand, and subsequent transfer of 50 μL aliquots to the assay plate was carried out with a CETUS Propette robot; the final concentration of the labeled ligand was 1 nM and the highest concentration of test compound was 1.0×10^-4 M. The competition occurred for two hours after which all wells were washed with a plate washer as before. Affinity purified horseradish peroxidase labeled goat anti-biotin antibody was diluted 1:3000 in TBS^+++ /BSA and 125 μL were added to each well. After 30 minutes, the plates were washed and incubated with OPD/H2 O2 substrate in 100 mM/L Citrate buffer, pH 5.0. The plate was read with a microtiter plate reader at a wavelength of 450 nm and when the maximum-binding control wells reached an absorbance of about 1.0, the final A450 were recorded for analysis. The data were analyzed using a macro written for use with the EXCEL™ spreadsheet program. The mean, standard deviation, and % CV were determined for duplicate concentrations. The mean A450 values were normalized to the mean of four maximum-binding controls (no competitor added) (B-MAX). The normalized values were subjected to a four parameter curve fit algorithm [Rodbard et al., Int.

Test [2] has as its target T2, Human fibrinogen receptor (αIIb β3) (Homo sapiens, UniProt P05106+P08514).
T2 construct: Human fibrinogen receptor (αIIb β3) was purified from outdated platelets; from tissue; host or cells: human outdated platelets
Description: Purified IIb/IIIa receptor assay (solid phase receptor assay). To be noted: inhibition of binding of biotinylated human vitronectin (1 nM) to purified receptor; Table I. Here is the method: as §1
Human fibrinogen receptor (αIIb β3) was purified from outdated platelets. (Pytela, R., Pierschbacher, M. D., Argraves, S., Suzuki, S., and Rouslahti, E. "Arginine-Glycine-Aspartic acid adhesion receptors", Methods in Enzymology 144(1987):475-489.) Human vitronectin was purified from fresh frozen plasma as described in Yatohgo, T., Izumi, M., Kashiwagi, H., and Hayashi, M., "Novel purification of vitronectin from human plasma by heparin affinity chromatography," Cell Structure and Function 13(1988):281-292. Biotinylated human vitronectin was prepared by coupling NHS-biotin from Pierce Chemical Company (Rockford, Ill.) to purified vitronectin as previously described. (Charo, I. F., Nannizzi, L., Phillips, D. R., Hsu, M. A., Scarborough, R. M., "Inhibition of fibrinogen binding to GP IIb/IIIa by a GP IIIa peptide", J. Biol. Chem. 266(3) (1991): 1415-1421.) Assay buffer, OPD substrate tablets, and RIA grade BSA were obtained from Sigma (St. Louis, Mo.). Anti-biotin antibody was obtained from Calbiochem (La Jolla, Calif.). Linbro microtiter plates were obtained from Flow Labs (McLean, Va.). ADP reagent was obtained from Sigma (St. Louis, Mo.).
as §2
This assay is essentially the same reported in Niiya, K., Hodson, E., Bader, R., Byers-Ward, V. Koziol, J. A., Plow, E. F. and Ruggeri, Z. M., "Increased surface expression of the membrane glycoprotein IIb/IIIa complex induced by platelet activation: Relationships to the binding of fibrinogen and platelet aggregation", Blood 70 (1987):475-483. The purified human fibrinogen receptor (αIIb β3) was diluted from stock solutions to 1.0 μg/mL in Tris-buffered saline containing 1.0 mM Ca^++, Mg^++, and Mn^++, pH 7.4 (TBS^+++). The diluted receptor was immediately transferred to Linbro microtiter plates at 100 μL/well (100 ng receptor/well). The plates were sealed and incubated overnight at 4° C. to allow the receptor to bind to the wells. All remaining steps were at room temperature. The assay plates were emptied and 200 μL of 1% RIA grade BSA in TBS^+++ (TBS^+++ /BSA) were added to block exposed plastic surfaces. Following a 2 hour incubation, the assay plates were washed with TBS^+++ using a 96 well plate washer. Logarithmic serial dilution of the test compound and controls were made starting at a stock concentration of 2 mM and using 2 nM biotinylated vitronectin in TBS^+++ /BSA as the diluent. This premixing of labeled ligand with test (or control) ligand, and subsequent transfer of 50 μL aliquots to the assay plate was carried out with a CETUS Propette robot; the final concentration of the labeled ligand was 1 nM and the highest concentration of test compound was 1.0×10^-4 M. The competition occurred for two hours after which all wells were washed with a plate washer as before. Affinity purified horseradish peroxidase labeled goat anti-biotin antibody was diluted 1:3000 in TBS^+++ /BSA and 125 μL were added to each well. After 30 minutes, the plates were washed and incubated with […]/H2 O2 substrate in 100 mM/L citrate buffer, pH 5.0. The plate was read with a microtiter plate reader at a wavelength of 450 nm and when the maximum-binding control wells reached an absorbance of about 1.0, the final A450 were recorded for analysis. The data were analyzed using a macro written for use with the EXCEL™ spreadsheet program. The mean, standard deviation, and % CV were determined for duplicate concentrations. The mean A450 values were normalized to the mean of four maximum-binding controls (no competitor added) (B-MAX). The normalized values were subjected to a four parameter curve fit algorithm, [Robard et al., Int.

Here are results for 15 compounds from patent US5852210A, “Cinnamic acid derivatives” (G. D. Searle & Co., priority 1997, dated 1998).

SMILES strings stand for the structures. Where a name gives a salt, the structure may show the parent alone.

T2 sequence (P08514 32-887 limits assumed): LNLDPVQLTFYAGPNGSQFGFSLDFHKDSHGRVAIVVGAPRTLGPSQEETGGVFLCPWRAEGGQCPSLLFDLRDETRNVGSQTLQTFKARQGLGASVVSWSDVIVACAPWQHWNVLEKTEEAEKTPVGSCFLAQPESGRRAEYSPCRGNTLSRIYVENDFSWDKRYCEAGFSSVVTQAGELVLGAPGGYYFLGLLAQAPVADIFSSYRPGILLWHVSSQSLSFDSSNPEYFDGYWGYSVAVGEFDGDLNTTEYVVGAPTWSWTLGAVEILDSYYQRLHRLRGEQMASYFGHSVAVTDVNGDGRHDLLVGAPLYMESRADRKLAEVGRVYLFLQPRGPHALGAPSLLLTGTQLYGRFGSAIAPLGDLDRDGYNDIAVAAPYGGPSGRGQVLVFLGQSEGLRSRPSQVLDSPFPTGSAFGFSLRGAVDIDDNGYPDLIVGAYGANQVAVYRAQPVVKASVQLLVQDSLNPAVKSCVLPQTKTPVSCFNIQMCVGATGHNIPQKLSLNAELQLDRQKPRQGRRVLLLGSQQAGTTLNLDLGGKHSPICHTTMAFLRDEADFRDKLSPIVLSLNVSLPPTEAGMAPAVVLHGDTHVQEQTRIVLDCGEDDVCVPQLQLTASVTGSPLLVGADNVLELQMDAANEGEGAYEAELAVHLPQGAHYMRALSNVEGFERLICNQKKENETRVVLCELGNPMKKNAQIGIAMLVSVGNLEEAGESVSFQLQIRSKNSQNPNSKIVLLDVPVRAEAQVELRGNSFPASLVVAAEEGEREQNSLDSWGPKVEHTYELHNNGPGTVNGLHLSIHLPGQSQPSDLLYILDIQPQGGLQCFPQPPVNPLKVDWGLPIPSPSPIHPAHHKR
T2 sequence (P08514 891-1039 limits assumed): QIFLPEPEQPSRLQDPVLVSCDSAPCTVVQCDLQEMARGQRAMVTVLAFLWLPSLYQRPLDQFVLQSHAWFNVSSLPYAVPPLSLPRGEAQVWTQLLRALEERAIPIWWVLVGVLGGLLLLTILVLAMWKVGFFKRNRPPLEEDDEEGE
T2 sequence (P05106 27-788): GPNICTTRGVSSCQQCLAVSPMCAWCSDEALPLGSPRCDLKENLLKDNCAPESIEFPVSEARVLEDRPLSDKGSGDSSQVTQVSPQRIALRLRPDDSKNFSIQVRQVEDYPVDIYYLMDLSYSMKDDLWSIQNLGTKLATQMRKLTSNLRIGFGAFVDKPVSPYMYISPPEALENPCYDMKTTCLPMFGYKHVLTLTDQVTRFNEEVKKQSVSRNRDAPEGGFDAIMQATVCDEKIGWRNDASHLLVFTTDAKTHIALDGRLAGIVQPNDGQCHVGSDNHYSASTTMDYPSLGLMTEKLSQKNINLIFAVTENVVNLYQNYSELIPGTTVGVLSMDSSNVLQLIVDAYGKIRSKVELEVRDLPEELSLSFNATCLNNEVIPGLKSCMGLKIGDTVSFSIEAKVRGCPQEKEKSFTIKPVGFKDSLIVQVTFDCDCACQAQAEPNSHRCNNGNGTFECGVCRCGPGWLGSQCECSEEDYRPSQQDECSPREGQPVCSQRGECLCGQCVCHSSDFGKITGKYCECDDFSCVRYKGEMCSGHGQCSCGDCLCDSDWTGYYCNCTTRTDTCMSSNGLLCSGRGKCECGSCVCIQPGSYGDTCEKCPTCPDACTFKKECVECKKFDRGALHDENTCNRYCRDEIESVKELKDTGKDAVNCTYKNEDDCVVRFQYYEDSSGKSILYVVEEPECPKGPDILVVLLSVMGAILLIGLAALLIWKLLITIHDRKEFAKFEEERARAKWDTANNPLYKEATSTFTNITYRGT
T1 sequence (P06756 31-889 limits assumed): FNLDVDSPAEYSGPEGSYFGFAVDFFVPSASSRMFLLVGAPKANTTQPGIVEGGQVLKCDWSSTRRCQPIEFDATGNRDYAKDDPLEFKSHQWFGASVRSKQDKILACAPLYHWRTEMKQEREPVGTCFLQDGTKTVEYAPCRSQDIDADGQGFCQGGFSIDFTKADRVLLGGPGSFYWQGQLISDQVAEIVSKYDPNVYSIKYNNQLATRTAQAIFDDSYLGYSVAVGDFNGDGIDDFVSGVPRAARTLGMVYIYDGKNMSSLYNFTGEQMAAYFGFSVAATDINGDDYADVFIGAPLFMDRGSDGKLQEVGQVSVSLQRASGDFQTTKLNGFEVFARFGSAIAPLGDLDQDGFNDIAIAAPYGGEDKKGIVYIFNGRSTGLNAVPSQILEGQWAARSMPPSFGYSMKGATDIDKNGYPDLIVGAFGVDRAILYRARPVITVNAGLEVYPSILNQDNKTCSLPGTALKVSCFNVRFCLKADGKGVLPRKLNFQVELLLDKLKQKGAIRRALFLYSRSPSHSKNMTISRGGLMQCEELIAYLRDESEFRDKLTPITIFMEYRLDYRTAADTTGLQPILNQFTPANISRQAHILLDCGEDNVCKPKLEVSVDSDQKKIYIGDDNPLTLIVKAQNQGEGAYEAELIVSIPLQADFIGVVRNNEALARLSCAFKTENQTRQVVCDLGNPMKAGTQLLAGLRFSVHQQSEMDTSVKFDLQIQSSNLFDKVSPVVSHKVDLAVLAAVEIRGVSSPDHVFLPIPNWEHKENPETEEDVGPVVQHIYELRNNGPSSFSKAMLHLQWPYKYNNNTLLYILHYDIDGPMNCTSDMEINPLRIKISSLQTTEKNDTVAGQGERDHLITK
T1 sequence (P06756 891-1048 limits assumed): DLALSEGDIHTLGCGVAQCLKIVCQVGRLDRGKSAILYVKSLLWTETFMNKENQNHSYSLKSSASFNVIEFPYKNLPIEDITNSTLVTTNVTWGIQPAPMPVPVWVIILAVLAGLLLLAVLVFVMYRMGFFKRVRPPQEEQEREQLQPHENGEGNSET
T1 sequence (P05106 27-788): as the sequence (P05106 27-788) above

In the case of `N=C(N)Nc1cccc(C(=O)Nc2ccc(/C=C/C(=O)O)cc2)c1` [Example 4, 3-[4-[[[3-[(aminoiminomethyl)amino]phenyl]carbonyl]amino]phenyl]-2-propenoic acid, trifluoroacetate salt], the IC50 in test [1] was 10.6 nM; in test [2], 7.05 nM.
As to `Cc1cc(/C=C/C(=O)O)ccc1NC(=O)c1cccc(NC(=N)N)c1` [Example 5, 3-[4-[[[3-[(arainoiminomethyl)amino]phenyl]carbonyl]amino]-3-methylphenyl]propenoic acid, trifluoroacetate salt], the figures for the IC50 in test [1] and in test [2] were 4.01 nM and 9.58 nM, respectively.
On to `COc1cc(NC(=O)c2cccc(NC3=NCCCN3)c2)ccc1/C=C/C(=O)O` [Example 50, 3-[2-methoxy-4-[[[3-[(1,4,5,6-tetrahydropyrimidin-2-yl)amino]phenyl]carbonyl]amino]phenyl]propenoic acid, trifluoroacetate salt], for which the IC50 was found to be 0.43 nM in test [1] and 772 nM in test [2].
For `N=C(N)Nc1cc(C(=O)Nc2ccc(/C=C/C(=O)O)cc2)cc(C(F)(F)F)c1` [Example 53, 3-[4-[[[3-[(aminoiminomethyl)amino]-5-(trifluoromethyl)-phenyl]carbonyl]amino]phenyl]propenoic acid, trifluoroacetate salt], the IC50 in test [1] was 7.89 nM; in test [2], 232 nM.
In the case of `O=C(O)C=Cc1cc(C(=O)C=Cc2cccc(C3=NCCCN3)c2)ccc1F` [Example 85, 3-[5-[3-[3-[(1,4,5,6-tetrahydrolpyrimidin-2-yl)]phenyl]-1-oxopropenyl]-2-fluorophenyl]propenoic acid, trifluoroacetate salt], the results for the IC50 in test [1] and in test [2] were 92 nM and 20800 nM, respectively.
Take `O=C(O)/C=C/c1cccc(CNC(=O)c2cccc(Nc3ncccn3)c2)c1` [Example 73, 3-[3-[[[[3-[(2-pyrimidinyl)amino]phenyl]carbonyl]amino]methyl]phenyl]propenoic acid, trifluoroacetate salt]: the IC50 in test [1] was 20400 nM; in test [2], 66000 nM.
As to `O=C(O)/C=C/c1cccc(OCC(=O)c2cccc(NC3=NCCN3)c2)c1` [Example 80, 3-[3-[2-[3-[(4,5-dihydro-1H-imidazol-2-yl)amino]phenyl]-2-oxoethoxy]phenyl]propenoic acid, trifluoroacetate salt], the IC50 in test [1] came out at 1.02 nM; in test [2], 3470 nM.
Taken in the same sequence, the figures for `CCOC(=O)/C=C/c1ccc(NC(=O)c2cccc(NC(=N)N)c2)cc1` [Example 3, ethyl 3-[4-[[[3-[(aminoiminomethyl)amino]phenyl]carbonyl]amino]phenyl]-2-propenoate, monohydrate trifluoroacetate salt] were 29000 nM and 32200 nM.
`N=C(N)Nc1cccc(C(=O)Nc2ccc(/C=C/C(=O)O)c(C(F)(F)F)c2)c1` [Example 35, trifluoroacetate salt]: the figures for the IC50 in test [1] and in test [2] were 122 nM and 152 nM, respectively.
`N#Cc1cc(NC(=O)c2cccc(NC(=N)N)c2)ccc1/C=C/C(=O)O` [Example 44, 3-[4-[[[3-[(aminoiminomethyl)amino]phenyl]carbonyl]amino]-2-cyanophenyl]propenoic acid, trifluoroacetate salt]: the half-inhibitory concentration (IC50) in test [1] was determined as 30.2 nM; in test [2], 36.2 nM.
For the compound `C/C(=C\C(=O)O)c1ccc(NC(=O)c2cccc(NC(=N)N)c2)cc1` [Example 59, 3-[4-[[[3-[(aminoiminomethyl)amino]phenyl]carbonyl]amino]phenyl]-2-butenoicacid, trifluoroacetate salt], the IC50 in test [1] stood at 1270 nM; in test [2] it was 5140 nM.
Take `CNC(=O)c1cc(NC(=O)c2cccc(NC3=NCCCN3)c2)ccc1/C=C/C(=O)O` [Example 45, 3-[2-[(methylamino)carbonyl]-4-[[[3-[(1,4,5,6-tetrahydropyrimidin-2-yl)amino]phenyl]carbonyl]amino]phenyl]propenoic acid, bis(trifluoroacetate) salt]: the half-inhibitory concentration (IC50) in test [1] is 6.7 nM; in test [2], 759 nM.
As for `N=C(N)Nc1cccc(C(=O)Nc2cc(Cl)c(/C=C/C(=O)O)c(Cl)c2)c1` [Example 29, 3-[4-[[[3-[(aminoiminomethyl)amino]phenyl]carbonyl]-amino]-2,6-dichlorophenyl]propenoic acid, dihydrochloride dihydrate], the IC50 in test [1] came out at 1830 nM; in test [2] it was 25400 nM.
On the same counts, the results for `CCc1cc(/C=C/C(=O)O)ccc1NC(=O)c1cccc(NC2=NCCN2)c1` [Example 21, 3-[4-[[[3-[(4,5-dihydro-1H-imidazol-2-yl)amino]-phenyl]carbonyl]amino]-3-ethylphenyl]propenoic acid, trifluoroacetate salt] are 0.49 nM and 125 nM.
Taken in the same sequence, the figures for `O=C(O)/C=C/c1cccc(CNC(=O)c2cccc(NC(=O)NCc3ccccc3)c2)c1` [Example 64, 3-[3-[[[[3-[[[(phenylmethyl)amino]carbonyl]amino]phenyl]carbonyl]amino]methyl]phenyl]propenoic acid, trifluoroacetate salt] were 2180 nM and 16200 nM.

As a reminder, the IC50 is the concentration that inhibits the measured activity by half.
